Measurements published in patent US20110076258A1, “METHODS OF MODULATING T CELL- DEPENDENT IMMUNE RESPONSES” (Converge Biotech Inc., priority 2008, published 2011).

Legend:
naïve CD4^+ T cells = assay: IL-2 ELISA in culture supernatants, plate-bound CD3 and CD28 stimulation; assay type: cell-based, mouse; details: versus untreated cells, 48 h
From the text: An inhibitory effect of oATP on peripheral blood T cell proliferation has been described (Baricordi et al., Blood 87:682-690 (1996)). […] We therefore hypothesize that ATP released from activated T cell is part of an autocrine loop, which plays an essential role in productive T cell activation.

[1] = test system: OVA-specific T cell clones; assay: Calcium imaging of CD3 responsiveness after pre-stimulation (anergy); assay type: cell-based, mouse; details: pre-incubated 16 h
From the text: NFAT nuclear translocation without concomitant MAPK activation, which can be obtained by ionomycin treatment, implements a transcriptional program leading to T cell anergy (Macian et al., Cell 109:719-731 (2002)). […] Then, we hypothesized that activation of T cells in the presence of oATP could induce T cell anergy. […] The effect of oATP was not due to altered turn-over of the TCR/CD3 complex at the cell surface, as determined by FACS analysis (data not shown).

[2] = test system: INS-HA transgenic RAG-2^−/− mice; assay: Diabetes by adoptive transfer of TCR-HA CD4 cells; assay type: in vivo, mouse
cd3ε^−/− mice = assay: Inflammatory bowel disease induced by naïve CD4^+ T cells; assay type: in vivo, mouse
From the text: FIG. 8: Amelioration of inflammatory bowel disease by oATP treatment. • a) Photographs of representative mesenteric lymph nodes, spleens and colons from cd3ε^−/− mice adoptively transferred with CD4^+/CD25^+ and CD4^+ cells (see Example 5). […] Bar=1 cm • b) Histograms representing inflammation scores in animals treated as indicated (see methods section) (mean±SD; n=5, CD4^+/25^+ healthy control group; n=7, CD4^+ untreated group; n=8, CD4^+ oATP-treated group). • c) Hematoxilin/eosin (upper panels) and Alcian/PAS (lower panels) staining of colon sections from the indicated animals (all the microscopic pictures in the box were taken at the same magnification; scale bar=50 μm). […] Partial goblet cell depletion and reduction in size of Alcian-PAS-positive droplets are also noticeable (arrowheads); in mice reconstituted with CD4 cells and treated with PBS, the lamina propria is markedly expanded by inflammatory cell infiltrate with focal findings of crypt abscessation (arrow). Colonic crypts are also severely dysplastic with almost complete loss of goblet cells. • d) Cell recoveries from mesenteric lymph nodes and spleen of the indicated animals.
e) Absolute numbers of IL-2-, TNFα-, IFNγ- and IL-17-producing CD4^+ T cells in mesenteric lymph nodes from the indicated mice (mean±SD; n=5, CD4^+/25^+ healthy group; n=7, CD4^+ untreated group; n=8, CD4^+ oATP-treated group). *, P<0.05, **, P<0.001, ***, P<0.0001 • f) Absolute numbers of CD44^+CD62L^− effector/memory and CD69^+ CD4 cells recovered from mesenteric lymph nodes and spleen of the indicated group of animals (bars represent mean values).
To test oATP in a non-transgenic model of T cell-mediated inflammation, we induced inflammatory bowel disease (IBD) in T lymphopenic cd3ε^−/− mice by injecting naïve CD4^+ T cells. As a healthy control we used cd3ε^−/− mice injected with naïve CD4^+ T cells together with CD4^+CD25^+ cells comprising regulatory T cells (Treg). […] Starting at day 15 after cell transfer, the IBD group was daily injected intravenously either with PBS or oATP.

human T cells = assay: Proliferation of CFSE-loaded T cells, plate-bound anti-CD3/28 (FACS); assay type: cell-based; details: 100 μM oATP or 200 μM of PX10 peptide, four days
Experimental: Our results point to a role for pannexin hemichannels in ATP release in T cells. […] CFSE-loaded human T cells were stimulated with plate-bound anti-CD3/28 antibodies in the presence of 100 μM oATP or 200 μM of PX10 peptide. Four days later, the proliferation was measured by FACS analysis.

mouse T cells = assay: IL-2 secretion by ELISA; assay type: cell-based
[3] = test system: T cells stimulated by anti-CD3 under Th17 skewing conditions; assay: Th17 skewing conditions (TGFβ and IL-6), Foxp3 and RORγT expression; assay type: cell-based
Experimental: Treatment with oATP at 100 μM inhibits Th17 differentiation and promotes Foxp3 expression. […] The absolute number of CD4^+CD25^high cells expressing Foxp3 by FACS analysis was increased (FIG. 12B). Moreover, the de-differentiation of sorted CD4^+CD25^high natural Treg cells to the Th17 lineage following stimulation (Koenen et al., Blood 112(6):2340-2352 (2008)) was prevented by oATP at 100 μM (FIG. 12C).

mouse model of IBD = assay: IBD model with insufficient number of adoptively transferred Treg cells; assay type: in vivo
DBA/1 mice = assay: Collagen-induced arthritis model of rheumatoid arthritis; assay type: in vivo, mouse
crt^−/− FLC = assay: Graft-versus-host disease-like phenotype of crt^−/− fetal liver chimeras; assay type: in vivo, mouse
Experimental: Phenotype of crt^−/− FLC before treatment and after daily intravenous treatment with PBS or 6 mM oATP (100 μl) for 2 weeks (see Example 16).
Histopathological evaluation of skin biopsies executed in a blinded fashion. The graphs show selected examples of dramatic results seen with oATP treatment (see Example 16).
Recombinase-deficient Balb/c mice were reconstituted with hematopoietic progenitors from fetal liver of calreticulin (crt)^−/− and +/+E13 embryos (FIG. 21). The phenotype of the resulting crt^−/− fetal liver chimera (FLC), which mimics graft-versus-host disease (GVHD) (see, e.g., Porcellini et al., J Exp Med 203:461-471 (2006)), was assessed at weeks 8, 10 and 12 after transfer and compared to the phenotype of the crt^+/+ FLC at week 12.
crt^+/+ and crt^−/− FLCs received daily intravenous treatment with PBS or 6 mM oATP (100 μL) for two weeks.

[4] = Th17 skewing conditions, oATP 100 μM

Nc1ncnc2c1ncn2[C@@H](C=O)O[C@@H](C=O)COP(=O)(O)OP(=O)(O)OP(=O)(O)O [oATP]
IL-2 in the cell culture supernatant (naïve CD4^+ T cells): significant reduction | responsiveness in calcium imaging of previously stimulated T cells [1]: reduced responsiveness | Blood glucose ([2]; day 12, twice daily i.v. and i.p. day 1 to 10): normal | CD69^+ cells in the pancreas ([2]; mouse, in vivo): undetectable | TCR-HA^+ cells in the pancreas ([2]; mouse, in vivo): barely detectable | TCR-HA^+ cells in the spleen ([2]; mouse, in vivo): significantly reduced | pathological findings in the pancreas ([2]; mouse, in vivo): no relevant pathological findings | IL-6, IFN-γ and TNF-α on a per-cell basis, ex vivo splenocytes pulsed with HA 110-120 peptide ([2]; versus PBS-treated control group): significant reduction | macroscopic intestine phenotype (thickening of the bowel wall, unformed or absent stool) (cd3ε^−/− mice; 5 weeks after reconstitution, daily i.v. from day 15): significantly ameliorated | number of proinflammatory cytokine (IL-2, IFN-γ and TNF-α)-secreting cells (cd3ε^−/− mice; mesenteric lymph nodes): significantly reduced | cellularity, CD4^+ effector/memory subset (CD44^+62L^−) and CD69^+ cells in mesenteric lymph nodes and spleen (cd3ε^−/− mice; mouse, in vivo): undistinguishable from healthy controls | colon histology (hematoxilin/eosin, Alcian/PAS) (cd3ε^−/− mice; mouse, in vivo): lamina propria is focally expanded by inflammatory cells infiltrate | inflammation score versus animals injected with CD4^+ and Treg cells (cd3ε^−/− mice; mouse, in vivo): not significantly different | number of IL-17 secreting cells (cd3ε^−/− mice; mouse, in vivo): analogous to the number in control mice | spleen and mesenteric lymph nodes size (cd3ε^−/− mice; mouse, in vivo): normal in size | T cell proliferation (human T cells): strongly inhibited | IL-2 secretion (mouse T cells): strongly inhibited | absolute number of CD4^+CD25^high cells expressing Foxp3 (FACS) ([3]; Th17 skewing conditions): increased | expression of Foxp3 (quantitative RT-PCR) [3, 4]: gradually increased | expression of RORγT (quantitative RT-PCR) [3, 4]: suppressing | Th17 differentiation ([3]; oATP 100 μM): inhibits | de-differentiation of sorted CD4^+CD25^high natural Treg cells to the Th17 lineage ([3]; oATP 100 μM): prevented | Foxp3 expression in Treg cells (mouse model of IBD; day 28, daily 100 μl of 3 mM oATP i.v. from day 14): increased | bowel inflammation (mouse model of IBD; mouse, in vivo): no signs of bowel inflammation | effector/memory T cells in mesenteric lymph nodes (mouse model of IBD; mouse, in vivo): reduced counts | ratio of Treg/EM cells in mesenteric lymph nodes (mouse model of IBD; mouse, in vivo): not significantly changed | spleen and mesenteric lymph nodes size (mouse model of IBD; mouse, in vivo): no increase | clinical score variation versus control group (DBA/1 mice; 3 mM in 100 μl i.v., after the initial five days of treatment): consistently lower | collagen-specific antibodies (type II collagen ELISA) (DBA/1 mice; versus control mice): decreased | histopathological evaluation of skin biopsies (inflammation and epidermal hyperplasia) (crt^−/− FLC; blinded): histological improvement | blepharitis (crt^−/− FLC; daily i.v. 6 mM oATP (100 μL) for two weeks): dramatically ameliorated
